Assay results from patent US12503484B2, “Androstane derivatives with activity as pure or predominantly pure stimulators of SERCA2a for the treatment of heart failure” (Seismic Pharmaceuticals, priority 2019, dated 2025).
Counter-ions that a name gives are not always drawn.

What was measured:
[1] = Acute toxicity in the mouse; details: Albino Swiss CD-1, in vivo
Procedure: The acute toxicity of the tested compound CVie214-salt and CVie216-salt have been determined in the mouse (Albino Swiss CD-1, body weight 30 g). Compounds have been orally administered or intravenously injected at increasing doses to identify the dose causing 50% mortality. Mortality occurred within 30 min after the administration and survival after 24 h.
As comparison, the acute toxicity for the reference compounds Digoxin and Istaroxime were also included. Digoxin refers to literature data (www.lookchem.com, Reference for Digoxin intravenous: Afifi A M, Ammar E M. Pharmacological Research Communications. Vol. 6, Pg. 417, 1974; Reference for Digoxin oral: Archives Internationales de Pharmacodynamie et de Therapie. Vol. 153, Pg. 436, 1965) (Table 3).

[2] = system: panel of receptors; experiment: Radioligand binding to a panel of receptors (Eurofins); details: 10 μM
[3] = system: ATPase, Ca2+, skeletal muscle; experiment: Receptor binding assay panel: ATPase, Ca2+, skeletal muscle; assay type: biochemical, pig; details: 10 μM
Procedure: (§1) Radioligand binding to a panel of receptors was carried out by Eurofins on crude membrane preparations according to published procedures and by using appropriate reference standard (Eurofin, Taiwan, compound code CVie216-3 (1226840), study #TW04-0004235, quote #TW04-0004235-Q04, for Cvie Therapeutics Limited, Taiwan). […] was tested at the concentration of 10 μM.

[4] = target: Monoamine Oxidase MAO-A (Homo sapiens (Human), UniProt P21397); experiment: Receptor binding assay panel: Monoamine Oxidase MAO-A; assay type: biochemical
[5] = target: Monoamine Oxidase MAO-B (Homo sapiens (Human), UniProt P27338); experiment: Receptor binding assay panel: Monoamine Oxidase MAO-B; assay type: biochemical
[6] = target: Nitric Oxide Synthase, Endothelial (eNOS) (Bos taurus (Bovine), UniProt P29473); experiment: Receptor binding assay panel: Nitric Oxide Synthase, Endothelial (eNOS); assay type: biochemical
[7] = target: Peptidase, Renin (Homo sapiens (Human), UniProt P00797); experiment: Receptor binding assay panel: Peptidase, Renin; assay type: biochemical
Chain of Peptidase, Renin (P00797 67-406): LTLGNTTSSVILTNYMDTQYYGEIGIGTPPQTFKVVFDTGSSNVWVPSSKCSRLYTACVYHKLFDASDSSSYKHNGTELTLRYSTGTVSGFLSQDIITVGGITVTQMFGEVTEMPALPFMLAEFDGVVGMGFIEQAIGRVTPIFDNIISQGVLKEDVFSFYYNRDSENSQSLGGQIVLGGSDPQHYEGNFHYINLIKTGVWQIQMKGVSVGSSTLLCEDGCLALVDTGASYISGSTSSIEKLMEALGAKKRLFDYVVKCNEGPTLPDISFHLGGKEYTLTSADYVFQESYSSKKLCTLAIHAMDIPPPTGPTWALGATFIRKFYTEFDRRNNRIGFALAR

[8] = target: Adenosine A2A (Homo sapiens (Human), UniProt P29274); experiment: Receptor binding assay panel: Adenosine A2A
[9] = target: Adrenergic α1A (Rattus norvegicus (Rat), UniProt P43140); experiment: Receptor binding assay panel: Adrenergic α1A
[10] = target: Adrenergic α2A (Homo sapiens (Human), UniProt P08913); experiment: Receptor binding assay panel: Adrenergic α2A
Procedure: as §1

[11] = target: Adrenergic β1 (Homo sapiens (Human), UniProt P08588); experiment: Receptor binding assay panel: Adrenergic β1
Chain of Adrenergic β1 (P08588 whole entry): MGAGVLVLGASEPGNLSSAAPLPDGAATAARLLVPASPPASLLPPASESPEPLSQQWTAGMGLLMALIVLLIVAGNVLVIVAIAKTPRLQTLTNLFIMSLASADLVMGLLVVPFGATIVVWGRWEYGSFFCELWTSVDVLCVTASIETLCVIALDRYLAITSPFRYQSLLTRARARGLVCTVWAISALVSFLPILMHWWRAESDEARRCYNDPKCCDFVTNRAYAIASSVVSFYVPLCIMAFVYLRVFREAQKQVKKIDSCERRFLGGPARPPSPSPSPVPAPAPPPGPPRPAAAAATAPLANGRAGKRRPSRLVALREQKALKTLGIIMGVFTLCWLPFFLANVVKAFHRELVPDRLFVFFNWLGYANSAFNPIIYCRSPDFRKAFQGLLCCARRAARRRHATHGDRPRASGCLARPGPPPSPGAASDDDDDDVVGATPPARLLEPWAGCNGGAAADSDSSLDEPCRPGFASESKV

[12] = target: Adrenergic β2 (Homo sapiens (Human), UniProt P07550); experiment: Receptor binding assay panel: Adrenergic β2
[13] = target: Angiotensin AT1 (Homo sapiens (Human), UniProt P30556); experiment: Receptor binding assay panel: Angiotensin AT1
[14] = target: Angiotensin AT2 (Homo sapiens (Human), UniProt P50052); experiment: Receptor binding assay panel: Angiotensin AT2
Chain of Angiotensin AT2 (P50052 whole entry): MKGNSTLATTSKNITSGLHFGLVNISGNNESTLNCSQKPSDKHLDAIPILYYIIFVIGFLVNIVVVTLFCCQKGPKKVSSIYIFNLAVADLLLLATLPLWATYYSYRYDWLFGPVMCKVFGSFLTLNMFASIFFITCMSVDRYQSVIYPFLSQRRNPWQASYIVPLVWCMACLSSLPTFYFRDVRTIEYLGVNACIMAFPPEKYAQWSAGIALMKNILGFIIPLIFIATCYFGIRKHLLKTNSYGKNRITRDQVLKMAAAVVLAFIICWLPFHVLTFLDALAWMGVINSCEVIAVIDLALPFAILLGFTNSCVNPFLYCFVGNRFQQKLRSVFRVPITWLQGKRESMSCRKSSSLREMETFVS

[15] = target: Dopamine D1 (Homo sapiens (Human), UniProt P21728); experiment: Receptor binding assay panel: Dopamine D1
Chain of Dopamine D1 (P21728 whole entry): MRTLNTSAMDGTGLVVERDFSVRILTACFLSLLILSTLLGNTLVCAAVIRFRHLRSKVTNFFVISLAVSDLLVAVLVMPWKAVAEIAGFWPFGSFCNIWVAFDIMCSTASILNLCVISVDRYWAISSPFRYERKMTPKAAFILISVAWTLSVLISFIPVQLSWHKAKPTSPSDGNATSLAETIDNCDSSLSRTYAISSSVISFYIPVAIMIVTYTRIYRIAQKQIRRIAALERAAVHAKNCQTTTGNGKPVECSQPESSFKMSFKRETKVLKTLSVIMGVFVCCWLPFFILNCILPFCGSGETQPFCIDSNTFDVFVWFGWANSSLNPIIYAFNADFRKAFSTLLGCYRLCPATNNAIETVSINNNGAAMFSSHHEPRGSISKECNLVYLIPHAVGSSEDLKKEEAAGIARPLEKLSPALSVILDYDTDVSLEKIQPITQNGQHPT

[16] = target: Dopamine D3 (Homo sapiens (Human), UniProt P35462); experiment: Receptor binding assay panel: Dopamine D3
Chain of Dopamine D3 (P35462 whole entry): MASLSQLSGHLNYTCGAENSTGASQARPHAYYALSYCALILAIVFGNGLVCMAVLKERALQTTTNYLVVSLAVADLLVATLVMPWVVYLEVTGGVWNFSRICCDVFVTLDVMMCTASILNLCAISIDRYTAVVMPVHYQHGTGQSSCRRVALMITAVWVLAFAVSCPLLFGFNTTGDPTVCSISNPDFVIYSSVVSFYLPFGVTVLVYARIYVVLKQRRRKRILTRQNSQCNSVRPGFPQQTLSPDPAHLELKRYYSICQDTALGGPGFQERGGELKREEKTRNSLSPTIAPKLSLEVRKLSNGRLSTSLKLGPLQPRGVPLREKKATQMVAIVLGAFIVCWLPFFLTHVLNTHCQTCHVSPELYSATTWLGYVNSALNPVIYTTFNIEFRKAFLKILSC

[17] = target: Estrogen ERα (Homo sapiens (Human), UniProt P03372); experiment: Receptor binding assay panel: Estrogen ERα
Chain of Estrogen ERα (P03372 whole entry): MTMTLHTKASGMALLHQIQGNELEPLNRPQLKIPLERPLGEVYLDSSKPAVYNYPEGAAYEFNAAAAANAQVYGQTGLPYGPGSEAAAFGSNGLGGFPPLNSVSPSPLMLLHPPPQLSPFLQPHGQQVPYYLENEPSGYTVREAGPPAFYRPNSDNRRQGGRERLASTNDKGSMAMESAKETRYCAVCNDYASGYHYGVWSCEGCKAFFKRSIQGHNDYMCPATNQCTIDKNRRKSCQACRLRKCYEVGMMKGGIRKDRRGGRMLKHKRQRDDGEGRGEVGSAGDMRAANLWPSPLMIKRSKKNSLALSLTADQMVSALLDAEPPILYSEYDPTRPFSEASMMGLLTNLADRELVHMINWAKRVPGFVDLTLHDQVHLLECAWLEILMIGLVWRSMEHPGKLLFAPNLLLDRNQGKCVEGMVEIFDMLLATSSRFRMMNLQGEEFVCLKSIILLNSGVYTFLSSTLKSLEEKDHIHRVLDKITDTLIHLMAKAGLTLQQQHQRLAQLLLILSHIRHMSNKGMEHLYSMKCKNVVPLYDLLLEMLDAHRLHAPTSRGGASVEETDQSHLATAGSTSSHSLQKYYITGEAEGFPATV

[18] = target: Glucocorticoid (Homo sapiens (Human), UniProt P04150); experiment: Receptor binding assay panel: Glucocorticoid
[19] = system: Glutamate, NMDA, Phencyclidine; experiment: Receptor binding assay panel: Glutamate, NMDA, Phencyclidine; parameters: species or system rat; details: 10 μM
Procedure: as §1

[20] = target: Histamine H1 (Homo sapiens (Human), UniProt P35367); experiment: Receptor binding assay panel: Histamine H1
[21] = system: Imidazoline I2, Central; experiment: Receptor binding assay panel: Imidazoline I2, Central; parameters: species or system rat; details: 10 μM
Procedure: as §1

[22] = target: Insulin (Rattus norvegicus (Rat), UniProt P15127); experiment: Receptor binding assay panel: Insulin
[23] = target: Muscarinic M3 (Homo sapiens (Human), UniProt P20309); experiment: Receptor binding assay panel: Muscarinic M3
Chain of Muscarinic M3 (P20309 whole entry, looked up): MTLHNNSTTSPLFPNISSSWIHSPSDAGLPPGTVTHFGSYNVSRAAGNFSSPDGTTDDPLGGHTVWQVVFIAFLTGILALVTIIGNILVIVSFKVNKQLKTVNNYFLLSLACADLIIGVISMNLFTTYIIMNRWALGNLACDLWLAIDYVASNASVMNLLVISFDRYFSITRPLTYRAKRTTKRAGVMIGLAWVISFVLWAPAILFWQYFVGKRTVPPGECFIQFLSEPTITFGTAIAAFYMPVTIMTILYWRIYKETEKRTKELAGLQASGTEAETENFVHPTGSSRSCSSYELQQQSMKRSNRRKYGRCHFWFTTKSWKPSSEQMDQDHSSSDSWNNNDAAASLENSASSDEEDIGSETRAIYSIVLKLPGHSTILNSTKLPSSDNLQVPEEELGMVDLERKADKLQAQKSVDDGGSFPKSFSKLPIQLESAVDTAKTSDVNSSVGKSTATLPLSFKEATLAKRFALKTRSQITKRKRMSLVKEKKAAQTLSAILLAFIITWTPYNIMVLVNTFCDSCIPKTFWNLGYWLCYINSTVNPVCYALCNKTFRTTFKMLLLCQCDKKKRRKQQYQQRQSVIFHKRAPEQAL
Procedure: as §1

[24] = target: Nicotinic Acetylcholine α3β4 (Homo sapiens (Human), UniProt P30926+P32297); experiment: Receptor binding assay panel: Nicotinic Acetylcholine α3β4
Procedure: as §1

[25] = system: Phorbol Ester; experiment: Receptor binding assay panel: Phorbol Ester; parameters: species or system mouse; details: 10 μM
[26] = target: Potassium Channel (KATP) (Cricetus cricetus (Black-bellied hamster), UniProt Q09427); experiment: Receptor binding assay panel: Potassium Channel (KATP)
Chain of Potassium Channel (KATP) (Q09427 whole entry, looked up): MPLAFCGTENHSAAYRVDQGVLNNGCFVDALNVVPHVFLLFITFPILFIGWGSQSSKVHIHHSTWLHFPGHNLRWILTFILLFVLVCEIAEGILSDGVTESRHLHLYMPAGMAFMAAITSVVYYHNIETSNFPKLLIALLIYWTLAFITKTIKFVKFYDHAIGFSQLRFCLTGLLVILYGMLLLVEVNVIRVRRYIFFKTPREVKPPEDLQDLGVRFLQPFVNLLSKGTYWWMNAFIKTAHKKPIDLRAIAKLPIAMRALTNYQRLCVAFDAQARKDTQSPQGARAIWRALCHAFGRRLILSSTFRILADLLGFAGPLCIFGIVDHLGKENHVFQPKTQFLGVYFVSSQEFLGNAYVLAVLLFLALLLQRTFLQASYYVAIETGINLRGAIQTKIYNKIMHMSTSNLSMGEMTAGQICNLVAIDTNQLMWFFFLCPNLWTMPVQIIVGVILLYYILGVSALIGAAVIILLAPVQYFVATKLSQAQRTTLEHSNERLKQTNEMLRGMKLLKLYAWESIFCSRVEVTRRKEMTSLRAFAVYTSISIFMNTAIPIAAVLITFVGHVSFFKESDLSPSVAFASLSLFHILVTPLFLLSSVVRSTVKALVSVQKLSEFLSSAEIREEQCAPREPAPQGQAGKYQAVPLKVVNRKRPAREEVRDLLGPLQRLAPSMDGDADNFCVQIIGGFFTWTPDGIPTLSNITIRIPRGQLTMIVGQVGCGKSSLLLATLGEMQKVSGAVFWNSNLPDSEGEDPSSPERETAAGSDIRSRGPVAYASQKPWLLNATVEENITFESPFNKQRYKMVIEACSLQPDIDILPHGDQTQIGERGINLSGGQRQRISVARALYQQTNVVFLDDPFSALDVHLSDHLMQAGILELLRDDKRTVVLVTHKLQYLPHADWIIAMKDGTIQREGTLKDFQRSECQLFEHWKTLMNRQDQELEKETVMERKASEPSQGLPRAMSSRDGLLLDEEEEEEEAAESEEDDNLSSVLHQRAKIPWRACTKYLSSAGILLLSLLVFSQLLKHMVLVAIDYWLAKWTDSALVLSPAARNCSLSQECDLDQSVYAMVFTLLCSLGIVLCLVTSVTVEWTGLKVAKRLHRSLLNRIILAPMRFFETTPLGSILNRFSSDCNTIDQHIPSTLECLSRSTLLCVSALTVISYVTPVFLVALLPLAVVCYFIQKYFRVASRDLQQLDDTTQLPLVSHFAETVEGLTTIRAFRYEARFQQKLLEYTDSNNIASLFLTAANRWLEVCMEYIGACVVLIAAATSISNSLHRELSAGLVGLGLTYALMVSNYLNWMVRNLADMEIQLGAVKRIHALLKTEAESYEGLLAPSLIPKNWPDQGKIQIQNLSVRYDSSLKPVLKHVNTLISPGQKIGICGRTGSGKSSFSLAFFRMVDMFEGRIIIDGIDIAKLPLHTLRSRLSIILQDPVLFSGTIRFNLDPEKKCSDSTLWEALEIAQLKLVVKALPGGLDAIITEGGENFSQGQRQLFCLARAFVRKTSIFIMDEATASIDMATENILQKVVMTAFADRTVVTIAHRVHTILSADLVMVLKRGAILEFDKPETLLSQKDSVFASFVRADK
Procedure: as §1

[27] = target: Progesterone PR-B (Homo sapiens (Human), UniProt P06401); experiment: Receptor binding assay panel: Progesterone PR-B
[28] = target: Ryanodine RyR3 (Rattus norvegicus, UniProt A0ABK0LPH6); experiment: Receptor binding assay panel: Ryanodine RyR3
[29] = system: Serotonin (5-Hydroxytryptamine) 5-HT1, non selective; experiment: Receptor binding assay panel: Serotonin (5-Hydroxytryptamine) 5-HT1, non selective; parameters: species or system rat; details: 10 μM
[30] = target: Sigma σ1 (Homo sapiens (Human), UniProt Q99720); experiment: Receptor binding assay panel: Sigma σ1
Chain of Sigma σ1 (Q99720 whole entry): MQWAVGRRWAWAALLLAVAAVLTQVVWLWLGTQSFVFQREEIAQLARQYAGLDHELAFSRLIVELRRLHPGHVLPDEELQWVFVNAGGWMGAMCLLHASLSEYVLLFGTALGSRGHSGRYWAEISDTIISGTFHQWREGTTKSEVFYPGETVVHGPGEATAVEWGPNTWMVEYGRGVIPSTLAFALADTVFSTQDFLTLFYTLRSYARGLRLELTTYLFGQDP

[31] = in vivo; parameters: dose or concentration left out as unconfirmed; details: rat
[32] = target: CYP450, 19 (CYP19) (Homo sapiens (Human), UniProt P11511); experiment: Receptor binding assay panel: CYP450, 19

## C[C@]12CC[C@H](CC(=O)O)CC1C(O)CC1C2CC[C@]2(C)C(=O)CCC12 (stereo in doubt) [CVie216-salt, 2-(6beta-hydroxy-17-oxoandrostane-3-yl) acetic acid]
[1]; iv
  LD50 at 24 h: > 300 mg/kg
[1]; oral, os
  LD50 at 24 h: > 700 mg/kg
[2]
  interaction on a panel of receptors (in words): No significant interaction
[3]
  % inhib: −1%
[4]
  inhibition at 10 µM: 1%
[5]
  inhibition at 10 µM: -2%
[6]
  inhibition at 10 µM: 2%
[7]
  inhibition at 10 µM: 7%
[8]
  inhibition at 10 µM: -1%
[9]
  inhibition at 10 µM: 5%
[10]
  inhibition at 10 µM: -2%
[11]
  inhibition at 10 µM: 2%
[12]
  inhibition at 10 µM: -6%
[13]
  inhibition at 10 µM: 1%
[14]
  inhibition at 10 µM: -6%
[15]
  inhibition at 10 µM: 13%
[16]
  inhibition at 10 µM: 0%
[17]
  inhibition at 10 µM: -3%
[18]
  inhibition at 10 µM: -9%
[19]
  % inhib: −7%
[20]
  inhibition at 10 µM: 12%
[21]
  % inhib: 1%
[22]
  inhibition at 10 µM: 4%
[23]
  inhibition at 10 µM: -6%
[24]
  inhibition at 10 µM: -3%
[25]
  % inhib: −7%
[26]
  inhibition at 10 µM: -11%
[27]
  inhibition at 10 µM: 1%
[28]
  inhibition at 10 µM: -10%
[29]
  % inhib: 12%
[30]
  inhibition at 10 µM: 2%
[31]
  bioavailability: 16.9%
[32]
  inhibition at 10 µM: 0%
